Entries after “also recorded” stand apart in the source; their conditions may differ.
Key:
Type in all cases: in vivo, mouse
[1] = tested on: C57BI/6 mice; test: Lifespan of old (2-year-old) C57BL/6 mice given a diet containing the compound
Experimental: (§1) Briefly, 24-28 mice per intervention were used, with an approximately equal number of males and females. Mice were first assessed with regard to frailty index and gait speed, and then randomized to make sure the experimental and control groups had the same average frailty index and gait speed. Mice were then given a diet containing a compound of interest. […] Mice were monitored daily until they died. A separate cohort of old mice was assessed for frailty index and gait speed.
Interventions were predicted in a screen based on the gene expression longevity signatures that we developed. The predicted interventions were then verified for gene expression responses in human and mouse primary cell culture (hepatocytes) and in live mice (after mice were fed for 1 month with the diets containing these interventions). The interventions that passed these tests were further assessed for the effect on lifespan of 2-year-old C57BI/6 mice. Older mice (2-year-old) were chosen for this experiment in order to mimic the effect of giving interventions to human subjects in their second half of life.
(§2) Briefly, 24-28 mice per intervention were used, with an approximately equal number of males and females. They were first assessed with regard to frailty index and gait speed, and then randomized to make sure the experimental and control groups had the same average frailty index and gait speed. Mice were then given a diet containing a compound of interest. […] Mice were monitored daily until they died. A separate cohort of old mice was assessed for frailty index and gait speed.

[2] = tested on: immune cells in the spleen; test: Population of immune cells in the spleen by FACS; settings: 27-month-old C57BI/6 females
Experimental: Population of immune cells in the spleen is not altered by Selumetinib (n=7 for Control, n=12 for Selumetinib). 27-month-old C57BI/6 females were used. Cells were analyzed by FACS: B-cells are CD45+CD19+, T-cells are CD45+CD3+, and myeloid cells are CD45+CD11b+.

[3] = tested on: C57BL/6 mice; test: Frailty index of old C57BL/6 mice on compound diet
Experimental: as §1, §2

[4] = tested on: longevity signatures; test: GSEA-based association of hepatic gene expression response (RNAseq, UM-HET3 mice on compound diet for 1 month) with longevity signatures; settings: UM-HET3 male mice, compound in diet for 1 month, liver RNAseq
Source text: Four-month old UM-HET3 mice were subjected to diets for 1 month, followed by gene expression analyses.
To validate the above approach and predictions, specific gene expression datasets were chosen from the GEO database that correspond to the effect of certain interventions considered to be health- and lifespan-extending or shortening on mouse liver (FIG. 16). […] UM-HET3 mice were then subjected to these compounds for 1 month, at which point the mice were sacrificed and subjected to gene expression analysis. Finally, the association GSEA-based test was applied to validate the findings (FIG. 16).
Second, diets were prepared for 24 of the identified compounds. These diets were administered to mice for 1 month, and ensuing gene expression changes were monitored. […]
For samples corresponding to lifespan-extending interventions, paired-end sequencing with 100 bp read length was performed on illumine HiSeq2000 platform. For samples corresponding to predicted compounds, libraries were prepared as described in (Hashimshony et al., 2016) and sequenced with 100 bp read length option on the Illumina HiSeq2500. […] Processed/cleaned reads were then mapped with STAR (version 2.5.2b) (Dobin et al., 2013) and counted via featureCounts (Liao et al., 2014). […]

[5] = tested on: C57BL/6 mice; test: Gait speed of old C57BL/6 mice on compound diet; settings: 31-month-old C57BL/6 male mice
Experimental: as §1, §2

[6] = tested on: C57BL/6 mice; test: Glucose tolerance in old C57BL/6 mice on compound diet; settings: old C57BL/6 mice at the dose given in diet (AZD-8055: 23-month-old, treated 2.5 months)
Experimental: 23-month-old mice were treated for 2.5 months prior to analyses.

SMILES	Effect on lifespan ([1]; C57BL/6 mice (Selumetinib: males and females combined), given late in life, ad libitum (Selumetinib 100 mg/kg of diet, Celastrol 8 mg/kg of food))	Effect on lifespan ([1]; independent cohort of female C57BL/6 mice, Selumetinib 100 mg/kg of diet)	Relative populations of immune cells in the spleen (B-cells, T-cells, myeloid cells) [2]	Effect on frailty index ([3]; 31-month-old C57BL/6 female mice)	Association of hepatic gene expression response with longevity signatures [4]	Effect on gait speed [5]	Effect on lifespan ([1]; C57BL/6 male mice, given late in life, ad libitum in diet (AZD-8055 20 mg/kg of food, LY294002 600 mg/kg, KU-0063794 10 mg/kg of diet))	Effect on frailty index ([3]; 31-month-old C57BL/6 male mice)	Effect on glucose tolerance [6]
Cn1cnc2c(F)c(Nc3ccc(Br)cc3Cl)c(C(=O)NOCCO)cc21 [Selumetinib, 6-(4-Bromo-2-chloroanilino)-7-fluoro-N-(2-hydroxyethoxy)-3-methylbenzimidazole-5-carboxamide]	extends lifespan	extends lifespan	not altered; also recorded: does not alter	improves					
C1COC(NC(C2CC2)C2CC2)=N1 [rilmenidine, N-(Dicyclopropylmethyl)-4,5-dihydro-1,3-oxazol-2-amine]					positive association with some of the signatures, including CR and GH deficiency, but not with the signatures associated with the lifespan extension effect				
COc1ccc(-c2ccc3c(N4CCOCC4)nc(N4C[C@@H](C)O[C@@H](C)C4)nc3n2)cc1CO [KU-0063794, rel-5-[2-[(2R,6S)-2,6-dimethyl-4-morpholinyl]-4-(4-morpholinyl)pyrido[2,3-d]pyrimidin-7-yl]-2-methoxybenzenemethanol]					consistent positive association with all lifespan-extending interventions, except for rapamycin	improved	extend lifespan	improved	No effect; also recorded: did not have a significant effect

— patent publication US20220249504A1, “LONGEVITY SIGNATURES AND THEIR APPLICATIONS” (The Brigham and Women's Hospital, Inc., priority 2019, published 2022)
